Tests used:
D2 receptors = target: T1, D2 receptors (Rattus norvegicus, UniProt P61169); experiment: Specific binding to D2 receptors ([3H]spiperone, rat striatum membrane); details: for IC50: [3H]spiperone 2 nM, rat striatum membrane, 20 min, 35° C., pH 7.4; for D2/5HT2 ratio: ratio of IC50 values, D2 over 5HT2
T1 construct: membrane corresponding to 20 mg of rat striatum; from tissue; host or cells: rat striatum membrane
Procedure: (§1) Specific binding to D2 and 5HT2 receptors was tested as follows:
D2 receptors: A 2-nM solution of radioactive spiperone ([^3 H]spiperone), which acts as a specific ligand, was incubated with the membrane corresponding to 20 mg of rat striatum for 20 min at 35° C. buffered at pH 7.4 with Tris.HCl. The non-specific binding was then determined by addition of a micromolar concentration of unlabelled spiperone. […] After the incubation was completed, the sample was filtered through a glass fiber filter and then washed three times with Tris.HCl buffer. The amount of receptor-bound radioactivity was retained on the membrane and determined by liquid scintillation counting.

5HT2 receptors [1] = target: T2, 5HT2 receptors (Rattus norvegicus, UniProt P14842); experiment: Specific binding to 5HT2 receptors ([3H]ketanserin, rat cortex membrane); details: [3H]ketanserin 0.5 nM, 30 min, 35° C., pH 7.4
T2 construct: membrane corresponding to 1 mg of rat cortex; from tissue; host or cells: rat cortex membrane
T2 sequence (P14842 whole entry): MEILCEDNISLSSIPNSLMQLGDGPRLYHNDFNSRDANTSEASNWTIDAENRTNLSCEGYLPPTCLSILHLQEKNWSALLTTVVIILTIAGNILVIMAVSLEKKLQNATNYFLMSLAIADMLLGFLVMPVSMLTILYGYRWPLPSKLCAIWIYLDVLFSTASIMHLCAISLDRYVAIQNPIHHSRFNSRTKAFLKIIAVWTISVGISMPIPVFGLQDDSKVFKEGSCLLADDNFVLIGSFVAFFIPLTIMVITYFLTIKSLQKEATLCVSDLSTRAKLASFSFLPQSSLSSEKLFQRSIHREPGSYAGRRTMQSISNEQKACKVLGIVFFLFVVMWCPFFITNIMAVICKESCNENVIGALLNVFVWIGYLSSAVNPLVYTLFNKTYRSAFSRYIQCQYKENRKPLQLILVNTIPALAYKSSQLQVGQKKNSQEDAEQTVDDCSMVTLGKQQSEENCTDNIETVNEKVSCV
Procedure: as §1
5HT2 receptors: A 0.5 nM solution of radioactive ketanserin ([^3 H]ketanserin), which acts as a specific ligand, was incubated with the membrane corresponding to 1 mg of rat cortex for 30 min at 35° C. buffered at pH 7.4 with Tris.HCl. Non-specific binding was then determined by addition of 5 micromolar concentration of unlabelled mianserin. IC50 (inhibitory concentration 50%) was calculated from the inhibition rate of the specific binding obtained by addition of eleven different concentrations of the compounds to be tested. After the incubation was completed, the sample was filtered through a glass fiber filter and then washed three times with Tris.HCl buffer. The amount of receptor-bound radioactivity was retained on the membrane and determined by liquid scintillation counting.

[2] = test system: apomorphine-induced climbing behaviour; experiment: Inhibition of apomorphine-induced climbing behaviour; format: in vivo, Male Swiss mice; details: Mus musculus, 1 h; oral, mice, apomorphine 1 mg/kg s.c. at 60 min
Procedure: (§2) The inhibiton test of apomorphine-induced climbing behaviour and the inhibition test of DOI-induced head twitches and scratches are hereinafter described.
Inhibition of aoomorphine-induced climbing behaviour
Male Swiss mice weighing 22-24 g were used. One week prior to experiment, animals were kept in our facilities at a temperature of 20°-22° C. and 12/12 h light-dark cycle, and had free access to food and water. Two hours prior to experiment, the animals were placed in individual cages without access to food.
Animals were administered orally with test drug or 0.25% agar at time 0. After 60 minutes, apomorphine was subcutaneously injected at a dose of 1 mg/kg, and after further 70 minutes the animal's behaviour was assessed. Two additional assessments were performed at 10-min intervals. For assessment, each animal was placed on the bottom of a small upright box (11×7.5×4.5 cm). The walls of the box were made of translucent methacrylate except one of the lateral surfaces (7.5 cm wide) which was a 3-mm wire mesh. The position of the animal was scored for 2 minutes according to the following criteria: 0=four paws on the floor; 1=three paws on the floor; 2=two paws on the floor; 3=one paw on the floor; and 4=four paws holding the wire mesh. If an animal keeps several positions within the 2-min observation, the seconds elapsed in each position will be recorded. Finally, mean scoring was calculated.

5HT2 receptors [3] = target: T3, 5HT2 receptors (Mus musculus, UniProt P35363); experiment: Inhibition of DOI-induced head twitches and scratches; format: in vivo, Male N.M.R.I. mice; details: p.o., mice, DOI 3 mg/kg i.p. at 60 min
T3 construct: Male N.M.R.I. mice weighing 22-26 g were used; from tissue; host or cells: living male N.M.R.I. mice (whole animal, endogenous receptor)
T3 sequence (P35363 whole entry): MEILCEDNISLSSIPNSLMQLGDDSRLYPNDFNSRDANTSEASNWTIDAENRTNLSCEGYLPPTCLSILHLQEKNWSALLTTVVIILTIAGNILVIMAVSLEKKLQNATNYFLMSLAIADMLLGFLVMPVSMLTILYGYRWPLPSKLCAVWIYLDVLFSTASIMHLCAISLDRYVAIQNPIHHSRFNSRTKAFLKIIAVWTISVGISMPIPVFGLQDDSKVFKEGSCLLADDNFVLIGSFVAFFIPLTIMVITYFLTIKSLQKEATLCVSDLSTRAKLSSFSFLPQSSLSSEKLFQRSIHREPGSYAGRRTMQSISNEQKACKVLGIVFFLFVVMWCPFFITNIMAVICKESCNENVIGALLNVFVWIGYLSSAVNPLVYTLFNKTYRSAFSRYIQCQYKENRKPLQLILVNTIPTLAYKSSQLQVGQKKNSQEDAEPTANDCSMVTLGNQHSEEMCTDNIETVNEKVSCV
Procedure: as §2
Inhibition of DOI-induced head twitches and scratches
Male N.M.R.I. mice weighing 22-26 g were used. After the animals were weighed, they were individually placed in transparent cages two hours prior to experiment. Test compound was given p.o. at time 0. The administration interval time between mice was 5 min. At time 60 min DOI at the dose of 3 mg/kg i.p. dissolved in saline was administered. The number of head twitches and scratches were assessed as well as the presence or absence of escape attempts.

[4] = Catalepsy by oral route in Sprague-Dawley rats; format: in vivo; details: for ED50: rat, in vivo, oral, Sprague-Dawley rats, 50% of treated animals showed catalepsy; for R (Catalepsy/Climbing): ratio of ED50 values

T1 sequence (P61169 whole entry): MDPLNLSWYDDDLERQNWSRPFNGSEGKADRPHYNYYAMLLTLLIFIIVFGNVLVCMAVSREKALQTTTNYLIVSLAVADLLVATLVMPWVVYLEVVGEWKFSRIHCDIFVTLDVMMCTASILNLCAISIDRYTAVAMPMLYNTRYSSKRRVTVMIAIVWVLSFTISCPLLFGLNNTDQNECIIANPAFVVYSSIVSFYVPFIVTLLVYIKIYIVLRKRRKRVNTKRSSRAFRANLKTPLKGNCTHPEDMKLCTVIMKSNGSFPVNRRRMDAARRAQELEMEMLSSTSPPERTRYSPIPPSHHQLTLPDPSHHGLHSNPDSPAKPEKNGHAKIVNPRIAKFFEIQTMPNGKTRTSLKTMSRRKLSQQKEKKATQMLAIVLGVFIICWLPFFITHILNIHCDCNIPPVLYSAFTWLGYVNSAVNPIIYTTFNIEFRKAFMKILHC

| SMILES | IC50 (D2 receptors) | D2/5HT2 ratio (D2 receptors) | IC50 (5HT2 receptors [1]) | ED50 [2] | ED50 DOI (5HT2 receptors [3]) | ED50 [4] | R (Catalepsy/Climbing) [4] |
| --- | --- | --- | --- | --- | --- | --- | --- |
| Cc1nc2scc(-c3ccc(F)cc3)n2c(=O)c1CCN1CCC(c2noc3cc(F)ccc23)CC1 [Example 14, 6-[2-[4-(6-fluoro-1,2-benzisoxazol-3-yl)-1-piperidinyl]ethyl]-3-(4-fluorophenyl)-7-methyl-5H-thiazolo[3,2-a]pyrimidin-5-one] | 19.7 nM | 6.2 | 3.18 nM | 2.9 mg/kg | 0.28 mg/kg | 9.3 mg/kg | 3.2 |
| Cc1nc2scc(-c3ccccc3)n2c(=O)c1CCN1CCC(c2noc3cc(F)ccc23)CC1 [Example 15, 6-[2-[4-(6-fluoro-1,2-benzisoxazol-3-yl)-1-piperidinyl]ethyl]-3-phenyl-7-methyl-5H-thiazolo[3,2-a]pyrimidin-5-one] | 44.1 nM | 11.2 | 3.94 nM | 14.7 mg/kg | 0.58 mg/kg | 16 mg/kg | 1.1 |
| COc1ccc(-c2csc3nc(C)c(CCN4CCC(c5noc6cc(F)ccc56)CC4)c(=O)n23)cc1 [Example 16, 6-[2-[4-(6-fluoro-1,2-benzisoxazol-3-yl)-1-piperidinyl]ethyl]-3-(4-methoxyphenyl)-7-methyl-5H-thiazolo[3,2-a]pyrimidin-5-one] | 42.1 nM | 5.1 | 8.32 nM | 7.4 mg/kg | 0.84 mg/kg | 30 mg/kg | 4.1 |
| Cc1ccc(-c2csc3nc(C)c(CCN4CCC(c5noc6cc(F)ccc56)CC4)c(=O)n23)cc1 [Example 17, 6-[2-[4-(6-fluoro-1,2-benzisoxazol-3-yl)-1-piperidinyl]ethyl]-3-(4-methylphenyl)-7-methyl-5H-thiazolo[3,2-a]pyrimidin-5-one] | 36.4 nM | 2.4 | 14.9 nM | 3.9 mg/kg | 0.57 mg/kg | 22.5 mg/kg | 5.8 |
| Cc1nc2scc(-c3ccc4c(c3)OCO4)n2c(=O)c1CCN1CCC(c2noc3cc(F)ccc23)CC1 [Example 18] | 17.3 nM | 2.3 | 7.63 nM | 7.7 mg/kg | 0.80 mg/kg | 20 mg/kg | 2.6 |
| Cc1nc2scc(-c3ccc(Cl)cc3)n2c(=O)c1CCN1CCC(c2noc3cc(F)ccc23)CC1 [Example 19] | 43.6 nM | 3.9 | 11.1 nM | 3.5 mg/kg | 0.82 mg/kg | 9.5 mg/kg | 2.7 |
| Cc1nc2scc(-c3ccc(Cl)c(Cl)c3)n2c(=O)c1CCN1CCC(c2noc3cc(F)ccc23)CC1 [Example 20] | 19.4 nM | 0.6 | 35.2 nM | – | – | – | – |
| Cc1nc2scc(-c3cccc(Cl)c3)n2c(=O)c1CCN1CCC(c2noc3cc(F)ccc23)CC1 [Example 21] | 16.6 nM | 0.7 | 24.5 nM | – | – | – | – |
| COc1cccc(-c2csc3nc(C)c(CCN4CCC(c5noc6cc(F)ccc56)CC4)c(=O)n23)c1 [Example 22] | 28 nM | 3.8 | 7.46 nM | 19 mg/kg | 1.10 mg/kg | 40 mg/kg | 2.1 |
| Cc1cccc(-c2csc3nc(C)c(CCN4CCC(c5noc6cc(F)ccc56)CC4)c(=O)n23)c1 [Example 23] | 22.3 nM | 0.7 | 32.1 nM | – | – | – | – |
| Cc1nc2scc(-c3ccccc3Cl)n2c(=O)c1CCN1CCC(c2noc3cc(F)ccc23)CC1 [Example 24] | 29.2 nM | 1.0 | 29.5 nM | > 50 mg/kg | 1.50 mg/kg | > 50 mg/kg | – |
| Cc1nc2scc(-c3cccc(C(F)(F)F)c3)n2c(=O)c1CCN1CCC(c2noc3cc(F)ccc23)CC1 [Example 25] | 20.9 nM | 0.3 | 83.3 nM | – | – | – | – |
| Cc1nc2scc(-c3ccccc3F)n2c(=O)c1CCN1CCC(c2noc3cc(F)ccc23)CC1 [Example 26] | 82 nM | 23.4 | 3.51 nM | > 50 mg/kg | 0.42 mg/kg | > 50 mg/kg | – |
| Cc1nc2scc(-c3ccccc3)n2c(=O)c1CCN1CCC(C(=O)c2ccc(F)cc2)CC1 [Example 27] | 174 nM | 13.9 | 12.5 nM | > 50 mg/kg | 1.20 mg/kg | > 50 mg/kg | – |
| COc1ccc(-c2csc3nc(C)c(CCN4CCC(C(=O)c5ccc(F)cc5)CC4)c(=O)n23)cc1 [Example 28] | 79.9 nM | 9.7 | 8.26 nM | 24.6 mg/kg | 0.60 mg/kg | > 50 mg/kg | > 2.0 |
| O=C(CCCN1CCC(O)(c2ccc(Cl)cc2)CC1)c1ccc(F)cc1 [Haloperidol, reference compound] | – | – | – | 1.2 mg/kg | – | 1.95 mg/kg | – |

— patent US5798361A, “5H-thiazolo[3,2-a]pyrimidin-5-one derivatives” (Ferrer Internacional, S.A., priority 1995, dated 1998)
